{"source": "paper PMC12703733", "about": "“Probing Guanidino Pendant or Bridged Groups in Cyclic Antimicrobial Peptides Derived from Temporin L: A Strategy to Improve Efficacy against Gram-Negative Bacteria” (Journal of Medicinal Chemistry, 2025)", "key": {"[1]": {"format": "cell-based, human", "in_short": "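Cells were plated at about 4 × 10^4/well in 2% FBS, then exposed to peptide at 100–3.12 μM in serum-free medium for 2 h or 24 h. Viability was measured by MTT reduction (0.5 mg/mL, 4 h, absorbance 570 nm) relative to untreated cells, as the mean ± SEM of three experiments.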"}, "[2]": {"format": "cell-based, P. aeruginosa", "method": "The antibiofilm activity was evaluated as elsewhere reported. Bacteria grew at 37 °C until they reached an optical density (OD) of 0.8 (λ = 590 nm). The culture was diluted to a cell density of 1 × 10^6 colony-forming units (CFUs)/mL and aliquots of 100 μL of this suspension were dispensed into the wells of a 96-multiwell plate. After biofilm formation (incubation time = 20 h at 37 °C), all the planktonic cells were removed, and the wells were washed twice with PBS (150 μL). After washing, the wells were filled with PBS supplemented with different 2-fold serial dilutions of the tested peptides (from 50 to 1.56 μM). After peptide treatment (incubation time = 2 h at 37 °C) the wells were washed with PBS twice and filled with 150 μL of MTT (0.5 mg/mL) to evaluate biofilm viability after 4 h incubation at 37 °C. The reaction was then stopped by adding SDS (final concentration equal to 5% v/v). A microplate reader (Infinite M200; Tecan, Salzburg, Austria) was used to measure the absorbance of each well at 570 nm and the percentage of biofilm viability was calculated relative to the untreated samples."}, "[3]": {"system": "Gram-positive bacteria tested", "test": "MIC panel, Gram-positive strains (geometric mean, range)", "format": "cell-based", "settings": "geometric mean of the MICs against Gram-positive bacteria tested", "method": "(§1) The antimicrobial efficacy of the TLcyc analogues was assessed against a representative panel of Gram-positive and Gram-negative bacterial strains, by determining their minimal inhibitory concentrations (MIC), as summarized in Table . To provide an integrated measure of antimicrobial potency, we calculated the geometric mean (GM) of MIC values across all strains (GMall), as well as separately for Gram-positive (GMGram+) and Gram-negative (GMGram–) bacteria.\n(§2) Bacterial strains used in this study were the Gram-positive S. aureus ATCC 25923, S. epidermidis ATCC 12228, B. megaterium BM11, S. agalactiae ATCC 27591, E. faecalis ATCC 29212 and the Gram-negative E. coli ATCC 25922, P. aeruginosa ATCC 27853, A. baumannii ATCC 19606, E. coli D21 and P. aeruginosa PAO1. […] Bacterial cells in the mid log phase were diluted in Muller Hinton (MH) at a concentration of 2 × 10^6 cell/mL. Aliquots of 50 μL of this bacterial suspension were added to 50 μL of MH containing serial 2-fold dilutions of the peptides (from 100 to 0.19 μM) in the wells a 96-well plate. Ciprofloxacin was used as antibiotic control. The plate was then incubated at 37 °C. MICs were obtained from three identical readings of four independent experiments."}, "[4]": {"system": "Gram-negative bacteria tested", "test": "MIC panel, Gram-negative strains (geometric mean)", "format": "cell-based", "settings": "geometric mean of the MICs against Gram-negative bacteria tested", "method": "as §1, §2"}, "E. coli ATCC 25922": {"system": "E. coli ATCC 25922", "test": "microbe, parasite or virus in culture", "format": "cell-based", "settings": "ATCC 25922", "in_short": "(§3)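 Broth MIC determination: cells grown to mid-log phase, diluted to 2 × 10^6 cell/mL in Mueller Hinton, then incubated with compound at 37 °C.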"}, "E. coli D21": {"system": "E. coli D21", "test": "microbe, parasite or virus in culture", "format": "cell-based", "settings": "D21", "in_short": "as §3"}, "S. aureus ATCC 25923": {"system": "S. aureus ATCC 25923", "test": "microbe, parasite or virus in culture", "format": "cell-based", "settings": "ATCC 25923", "in_short": "as §3"}, "P. aeruginosa ATCC 27853": {"system": "P. aeruginosa ATCC 27853", "test": "microbe, parasite or virus in culture", "format": "cell-based", "settings": "ATCC 27853", "in_short": "as §3"}, "[5]": {"system": "S. epidermidis ATCC 12228", "test": "microbe, parasite or virus in culture", "format": "cell-based", "settings": "ATCC 12228", "in_short": "as §3"}, "E. faecalis ATCC 29212": {"system": "E. faecalis ATCC 29212", "test": "microbe, parasite or virus in culture", "format": "cell-based", "settings": "ATCC 29212", "in_short": "as §3"}, "B. megaterium BM11": {"system": "B. megaterium BM11", "test": "microbe, parasite or virus in culture", "format": "cell-based", "settings": "BM11", "in_short": "as §3"}, "A. baumannii ATCC 19606": {"system": "A. baumannii ATCC 19606", "test": "microbe, parasite or virus in culture", "format": "cell-based", "settings": "ATCC 19606", "in_short": "as §3"}, "S. agalactiae ATCC 27591": {"system": "S. agalactiae ATCC 27591", "test": "microbe, parasite or virus in culture", "format": "cell-based", "settings": "ATCC 27591", "in_short": "as §3"}, "circular dichroism": {"test": "circular dichroism", "settings": "water; pH ns; 25 °C; 150 uM"}}, "note": "Bridge positions count the residues as written; N and C are the ends. Square brackets hold non-standard residues; d marks the D form. Peptide text beside a SMILES is read from it."}
{"smiles": "CC[C@H](C)[C@H](NC(=O)[C@H](CCCNC(=N)N)NC(=O)[C@H]1CCC(=O)NCCCC[C@H](NC(=O)[C@H](Cc2ccccc2)NC(=O)[C@H](Cc2c[nH]c3ccccc23)NC(=O)[C@@H]2CCCN2C(=O)[C@@H](NC(=O)[C@@H](N)Cc2ccccc2)C(C)C)C(=O)N[C@@H](CCCCN)C(=O)N[C@@H](Cc2ccccc2)C(=O)N[C@H](CC(C)C)C(=O)N1)C(=O)N[C@@H](CC(C)C)C(N)=O", "note": "[Peptide 2, FVPWF[KKFle]RIL] (H-FVPWFKKF[dL][dE]RIL-NH2; lactam 6-10)", "values": [{"measurement": "CC50", "setting": "[1]; CC50", "result": "> 50", "unit": "µM"}, {"measurement": "viability at 3.12 µM", "setting": "[1]; Cell viability (%)", "result": 102, "unit": "%"}, {"measurement": "viability at 6.25 µM", "setting": "[1]; Cell viability (%)", "result": 96, "unit": "%"}, {"measurement": "viability at 12.5 µM", "setting": "[1]; Cell viability (%)", "result": 95, "unit": "%"}, {"measurement": "viability at 25 µM", "setting": "[1]; Cell viability (%)", "result": 95, "unit": "%"}, {"measurement": "viability at 50 µM", "setting": "[1]; Cell viability (%)", "result": 64, "unit": "%"}, {"measurement": "viability", "setting": "[2]", "result": "> 70", "unit": "%"}, {"measurement": "geometric mean GMGram+", "setting": "[3]", "result": 4.72, "unit": "µM"}, {"measurement": "geometric mean GMGram–", "setting": "[4]", "result": 16.4, "unit": "µM"}, {"measurement": "MIC", "setting": "E. coli ATCC 25922", "result": 6.25, "unit": "µM"}, {"measurement": "MIC", "setting": "E. coli D21", "result": 12.5, "unit": "µM"}, {"measurement": "MIC", "setting": "S. aureus ATCC 25923", "result": 12.5, "unit": "µM"}, {"measurement": "MIC", "setting": "P. aeruginosa ATCC 27853", "result": 50, "unit": "µM"}, {"measurement": "MIC", "setting": "[5]", "result": 3.12, "unit": "µM"}, {"measurement": "MIC", "setting": "E. faecalis ATCC 29212", "result": 25, "unit": "µM"}, {"measurement": "MIC", "setting": "B. megaterium BM11", "result": 0.78, "unit": "µM"}, {"measurement": "MIC", "setting": "A. baumannii ATCC 19606", "result": 6.25, "unit": "µM"}, {"measurement": "MIC", "setting": "S. agalactiae ATCC 27591", "result": 3.12, "unit": "µM"}, {"measurement": "helicity", "setting": "circular dichroism", "result": 7, "unit": "%"}]}
